Experimental data from US20060009433A1, “Neuroprotective spirostenol pharmaceutical compositions” (priority 2003, published 2006).
“Also recorded” adds a separate entry of the source.

Columns and labels:
[1] = target: T1, Aβ17-40 (Homo sapiens, UniProt P05067); assay: CPBBA, Aβ17-40; format: binding
T1 construct: purchased American Peptide Co. (Sunnyvale, Calif.)
Description: (§1) At the end of the incubation time, samples were separated by 1.5% agarose (Type I-B) gel electrophoresis and transferred to nitrocellulose membrane (Schleicher & Schuell, Keene, N.H.) in 10×SSC buffer. The membrane was exposed to tritium-sensitive screen and analyzed by phosphoimaging using the Cyclone Storage phosphor system (Packard BioScience, Meridien, Conn.). Image-densitometric analysis was performed using the OptiQuant software (Packard). […] Low molecular weight unincorporated 22i-hydroxycholesterol is separated and eliminated during electrophoresis.

[2] = test system: human NT2 cells; assay: MTT assay, glutamate-induced toxicity in NT2 cells; format: cell-based; settings: 5 mM glutamate, three days; 1 to 50 μM compound; data not shown
[3] = test system: NT2 cells; assay: Expression of neurofilament proteins NF70, NF145, NF200 by NT2 cells (immunoblot); format: cell-based, human; settings: 6 days
Description: Cells were fixed with newly prepared 3.7% formaldehyde for 15 minutes and blocked by blocking reagent (Zymed Laboratories, San Francisco, Calif., USA). Inuunostaining was performed using rabbit anti-NF200, anti-NF145 and anti-NF70 (all at 1:200), and goat anti-GFRα1, anti-GFRα2 and anti-GFRα3 (all at 1:100); Santa Cruz Biotechnology (Santa Cruz, Calif., USA). All antibodies were used at 200 μg/ml. After overnight incubation at 4° C., the immunoreactivity was detected using horseradish peroxidase-conjugated anti-rabbit or anti-mouse IgG for 1 hour at room temperature and visualized using AEC.
Cells were then washed with phosphate-buffered saline (PBS) and lysed with loading buffer. Proteins were resolved by sodium dodecyl sulfate polyacrylamide gel electrophoresis (SDS-PAGE) on 4-20% gradient acrylamide-bis-acrylamide gel at 125 V for 2 hours and electrotransferred onto nitrocellulose membranes. After blocking with 5% nonfat milk, the membranes were subjected to immunoblot analysis by incubation overnight with rabbit anti-NF200, anti-NF145 and anti-NF70 (all at 1:4000) (Chemicon International, Temecula, Calif., USA) and goat anti-GFRα1, anti-GFRα2 and anti-GFRα3 (all at 1:500) (200 μg/ml; Santa Cruz Biotechnology, Inc., Santa Cruz, Calif., USA), goat anti-rabbit or rabbit anti-goat IgG-horseradish peroxidase being used as the secondary antibody (1:5000) (Zymed Laboratories, San Francisco, Calif., USA). Protein bands were visualized using ECL reagents (Amersham Pharmacia Biotech, Piscataway, N.J., USA). Image-densitometric analyses of the immunoreactive protein bands were performed using OptiQuant-image analysis software (Packard BioScience, Meriden, Conn., USA). Glyceraldehyde-3-phosphate dehydrogenase (GAPPH) served as an internal standard.

[4] = test system: human NT2 cells; assay: Trypan blue dye exclusion assay, NT2 cells; format: cell-based; settings: 25 μM steroid, 72 hours
Description: (§2) Rat PC12 cells were cultured as previously described. Yao et al., Brain Res. 889, 181-190 (2001). Human NT2 precursor (Ntera2/D1 teratocarcinoma) cells were obtained from Stratagene (La Jolla, Calif.) and cultured following the instructions of the supplier. Differentiated human NT2 neurons (NT2N) were obtained after treatment of the NT2 precursor cells with retinoic acid. Andrews, Dev. […] Aβ was dissolved in media and used either in the aggregated (left overnight at 4° C.) or soluble (containing oligomers such as dimers and tetramers) forms examined by electrophoresis as previously described. Yao et al., Brain Res. (2001). […] Id. Cell viability was measured using the trypan blue exclusion method as previously described. Id. In brief, for these studies, cells were treated for 72 hours with steroids in the presence or absence of increasing concentrations of Aβ. At the end of the incubation, the cells were washed three times with PBS and incubated for 15 minutes with 0.1% trypan blue stain solution at room temperature. After washing three times with PBS, 0.1 N NaOH was added to the cells and trypan blue staining was quantified using the Victor quantitative detection spectrophotometer (EGG-Wallac, Gaithersburg, Md.) at 450 nm. Cell protein levels were determined in the same samples by the method of Bradford (Bradford, Anal. Biochem., 72, 248-254 (1976)), where coomassie blue staining is detected at 590 nm.
(§3) The results obtained from using MTT assay were further confirmed with the trypan blue dye exclusion assay. […] Levels of viability were measured using the trypan blue assay as described under Materials and Methods. Results are expressed as fold trypan blue stained cells per total cell protein over control untreated cells. Results shown are means±SD (n=6-12).

[5] = test system: rat PC12 cells; assay: Trypan blue dye exclusion assay, PC12 cells (Example I); format: cell-based; settings: 100 μM steroid, 72 hours
Description: as §2, §3

[6] = test system: differentiated human NT2N neurons; assay: MTT assay, Aβ1-42-induced toxicity on differentiated NT2N neurons; format: cell-based; settings: for protection against Aβ-induced toxicity: 25 μM Aβ1-42, 72 hours
[7] = target: T2, Aβ (Homo sapiens, UniProt P05067); assay: CPBBA displacement of radiolabeled 22R-hydroxycholesterol from Aβ (Example II); format: binding; settings: 100 μM unlabeled compound; 50 μM Aβ
T2 construct: Aβ1-42 peptide was purchased from American Peptide Co; purchased American Peptide Co. (Sunnyvale, Calif.)
Description: At the end of the incubation time, samples were separated by 1.5% agarose (Type I-B) gel electrophoresis under native conditions and transferred to nitrocellulose membrane (Schleicher&Schuell, Keene, N.H.) in 10×SSC buffer. The membrane was exposed to tritium-sensitive screen and analyzed by phosphoimaging using the Cyclone Storage phosphor system (Packard BioScience). Image-densitometric analysis was performed using the OptiQuant software (Packard BioScience). […] Low molecular weight unincorporated 22R-hydroxycholesterol and derivatives are separated and eliminated during electrophoresis.

[8] = target: T3, Aβ1-40 (Homo sapiens, UniProt P05067); assay: CPBBA, Aβ1-40; format: binding
T3 construct: purchased American Peptide Co. (Sunnyvale, Calif.)
Description: as §1

[9] = CPBBA with NT2 cell protein; format: binding, human; settings: 3 hours at 37° C.; competition with unlabeled compound
Description: After incubation, samples were separated by 1.0% agarose (Type I-B) gel electrophoresis and transferred to a nitrocellulose membrane (Schleicher & SchueII, Keene, N.H., USA) in 10×saline-sodium citrate (SSC) buffer. The membrane was exposed to a tritium-sensitive screen and analyzed by phosphoimaging using the Cyclone Storage Phosphor System (Packard BioScience, Meridien, Conn., USA). Image-densitometric analyses were performed using the OptiQuant software (Packard). […] Low molecular weight unincorporated 22R-hydroxycholesterol is separated and eliminated during electrophoresis.

[10] = test system: rat PC12 neuronal cells; assay: MTT assay, Aβ1-42-induced cytotoxicity in PC12 cells (Example I)

T1 sequence (P05067 688-711 limits assumed): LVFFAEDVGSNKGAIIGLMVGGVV
T2 sequence (P05067 672-713): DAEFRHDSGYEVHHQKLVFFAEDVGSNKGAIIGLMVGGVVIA
T3 sequence (P05067 672-711): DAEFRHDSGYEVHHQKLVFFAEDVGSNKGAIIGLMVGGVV

Compound: CC(C)CC[C@@H](O)[C@@H](C)[C@H]1CC[C@H]2[C@@H]3CC=C4C[C@@H](O)CC[C@]4(C)[C@H]3CC[C@]12C [SP222, 22R-hydroxycholesterol]
- binding to Aβ17-40 ([1]; CPBBA): binds
- 22R-hydroxycholesterol-binding site in Aβ ([1]; CPBBA with various Aβ synthetic peptides): amino acids 17-40 of Aβ
- protection against glutamate-induced decrease in cell viability [2]: failed to protect the cells
- NF70 protein level ([3]; 1 μM): 83 % of the control level
- NF145 expression ([3]; 5 μM): increase that was apparent at 5 μM
- NF200 protein expression ([3]; 5 μM): 210 % of the control value
- NF145 expression ([3]; 25 μM): 56 % of control levels
- NF200 protein expression ([3]; 25 μM): 180 % of the control value
- NF70 protein level ([3]; 50 μM): 18 % of the control level
- rescue from Aβ1-42-induced cell death [4]: rescued
- rescue from Aβ25-35-induced cell death [4]: Neither 22R-hydroxycholesterol nor DHEA could rescue
- rescue from Aβ1-42-induced cell death [5]: rescued
- rescue from Aβ25-35-induced cell death [5]: Neither 22R-hydroxycholesterol nor DHEA could rescue
- protection against Aβ-induced toxicity ([6]; 1 μM compound): 50%
- protection against Aβ-induced toxicity ([6]; 10 μM compound): 100%
- IC50 ([6]; Homo sapiens, Neuron, NT2T cells, read-out: IC50 of protection from Aβ-induced toxicity): 3 µM
- displacement of radiolabeled 22R-hydroxycholesterol binding to Aβ [7]: 80%
- binding to Aβ1-40 [8]: barely interacts
- radiolabeling of NT2 cell protein with 3H-22R-hydroxycholesterol [9]: decreased in the presence of increasing concentrations of unlabeled 22R-hydroxycholesterol
- rescue from 25 μM Aβ-induced cytotoxicity ([10]; MTT, 25 μM Aβ1-42): rescue all the cells; also recorded: full protection
- cells rescued in the presence of 50 μM Aβ ([10]; MTT, 50 μM Aβ1-42): 50%
- PC12 cell viability, steroid alone ([10]; MTT, absence of Aβ): did not affect PC12 cell viability
- IC50 ([10]; Rattus norvegicus, PC-12, read-out: IC50 of protection from Aβ-induced toxicity): 10 µM
- protection by pretreatment followed by treatment with Aβ ([10]; pretreatment of PC12 cells, data not shown): failed to offer any protection
- protection against Aβ oligomer-induced toxicity ([10]; soluble Aβ (oligomers), not shown): protected
